In patent US9133158B2, “Bicyclic dihydroisoquinoline-1-one derivatives” (Hoffmann-La Roche Inc., priority 2011, dated 2015):

Key:
human CYP11B2 = target: T1, human CYP11B2 (Homo sapiens, UniProt P19099); test: G-402 cellular enzyme assay, human CYP11B2 (aldosterone release, HTRF); type: cell-based; conditions: G-402 cells, 1 μM Deoxycorticosterone
T1 construct: expressed in transfected cells
T1 sequence (P19099 25-503): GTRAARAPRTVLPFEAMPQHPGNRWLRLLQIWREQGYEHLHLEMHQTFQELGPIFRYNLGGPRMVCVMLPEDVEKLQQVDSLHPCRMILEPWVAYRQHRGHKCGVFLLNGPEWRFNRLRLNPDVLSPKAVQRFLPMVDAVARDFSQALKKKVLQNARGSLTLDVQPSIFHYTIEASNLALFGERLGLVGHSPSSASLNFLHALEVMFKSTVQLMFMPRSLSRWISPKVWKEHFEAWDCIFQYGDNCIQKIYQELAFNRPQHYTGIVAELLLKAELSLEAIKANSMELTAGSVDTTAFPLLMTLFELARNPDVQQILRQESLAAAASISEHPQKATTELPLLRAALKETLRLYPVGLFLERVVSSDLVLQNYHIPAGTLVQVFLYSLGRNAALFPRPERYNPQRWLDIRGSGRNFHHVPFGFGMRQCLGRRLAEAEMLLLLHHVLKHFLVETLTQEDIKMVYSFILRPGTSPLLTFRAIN
Outline: (§1)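 Stable G-402 transfectants; 16 h incubation with inhibitor plus substrate — CYP11B2: 1 μM deoxycorticosterone, aldosterone read; CYP11B1: 1 μM deoxycortisol, cortisol read. HTRF on supernatant. Medium DMEM/F12, 2.5% charcoal FCS. EC50 via MMF sigmoidal fit.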

human CYP11B1 = target: T2, human CYP11B1 (Homo sapiens, UniProt P15538); test: G-402 cellular enzyme assay, human CYP11B1 (cortisol release, HTRF); type: cell-based; conditions: G-402 cells, 1 μM Deoxycortisol
T2 construct: expressed in transfected cells
T2 sequence (P15538 25-503): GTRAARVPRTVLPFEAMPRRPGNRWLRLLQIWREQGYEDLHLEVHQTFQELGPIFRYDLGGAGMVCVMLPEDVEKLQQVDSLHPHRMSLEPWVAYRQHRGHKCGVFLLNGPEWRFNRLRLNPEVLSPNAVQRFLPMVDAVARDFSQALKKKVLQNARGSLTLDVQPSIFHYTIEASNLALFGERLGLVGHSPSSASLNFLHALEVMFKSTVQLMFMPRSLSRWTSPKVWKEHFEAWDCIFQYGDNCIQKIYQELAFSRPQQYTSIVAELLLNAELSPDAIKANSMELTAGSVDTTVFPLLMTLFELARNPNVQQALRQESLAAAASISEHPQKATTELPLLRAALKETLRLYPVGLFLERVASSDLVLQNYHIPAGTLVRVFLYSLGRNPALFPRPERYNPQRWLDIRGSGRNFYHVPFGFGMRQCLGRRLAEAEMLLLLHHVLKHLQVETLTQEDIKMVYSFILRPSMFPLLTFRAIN
Outline: as §1

| EC50 (human CYP11B2) | EC50 (human CYP11B1) | SMILES |
| --- | --- | --- |
| 22.2 nM | 1450 nM | Cn1ccnc1C(=O)NCc1cncc(N2C(=O)c3ccc(Cl)cc3C2(C)C)c1 [Example 432, 1-Methyl-1H-imidazole-2-carboxylic acid [5-(6-chloro-1,1-dimethyl-3-oxo-1,3-dihydro-isoindol-2-yl)-pyridin-3-ylmethyl]-amide] |
| 14.3 nM | 1310 nM | CC1(C)c2cc(Cl)ccc2C(=O)N1c1cncc(CNC(=O)c2cccnc2Cl)c1 [Example 433, 2-Chloro-N-[5-(6-chloro-1,1-dimethyl-3-oxo-1,3-dihydro-isoindol-2-yl)-pyridin-3-ylmethyl]-nicotinamide] |
| 6.6 nM | 228 nM | CC1(C)c2cc(Cl)ccc2C(=O)N1c1cncc(CNC(=O)c2ccccn2)c1 [Example 434, Pyridine-2-carboxylic acid [5-(6-chloro-1,1-dimethyl-3-oxo-1,3-dihydro-isoindol-2-yl)-pyridin-3-ylmethyl]-amide] |
| 8.8 nM | 256 nM | Cn1cncc1C(=O)NCc1cncc(N2C(=O)c3ccc(Cl)cc3C2(C)C)c1 [Example 435, 3-Methyl-3H-imidazole-4-carboxylic acid [5-(6-chloro-1,1-dimethyl-3-oxo-1,3-dihydro-isoindol-2-yl)-pyridin-3-ylmethyl]-amide] |
| 5.8 nM | 158 nM | Cc1ccc(C(=O)NCc2cncc(N3C(=O)c4ccc(Cl)cc4C3(C)C)c2)cn1 [Example 436, N-[5-(6-Chloro-1,1-dimethyl-3-oxo-1,3-dihydro-isoindol-2-yl)-pyridin-3-ylmethyl]-6-methyl-nicotinamide] |
| 77.6 nM | 1640 nM | CC1(C)c2cc(Cl)ccc2C(=O)N1c1cncc(CNC(=O)c2ccncc2Cl)c1 [Example 437, 3-Chloro-N-[5-(6-chloro-1,1-dimethyl-3-oxo-1,3-dihydro-isoindol-2-yl)-pyridin-3-ylmethyl]-isonicotinamide] |
| 3.8 nM | 202 nM | CC1(C)c2cc(Cl)ccc2C(=O)N1c1cncc(CNC(=O)c2cccnc2)c1 [Example 438, N-[5-(6-Chloro-1,1-dimethyl-3-oxo-1,3-dihydro-isoindol-2-yl)-pyridin-3-ylmethyl]-nicotinamide] |
| 119 nM | 6900 nM | Cc1ncccc1C(=O)NCc1cncc(N2C(=O)c3ccc(Cl)cc3C2(C)C)c1 [Example 439, N-[5-(6-Chloro-1,1-dimethyl-3-oxo-1,3-dihydro-isoindol-2-yl)-pyridin-3-ylmethyl]-2-methyl-nicotinamide] |
| 17.6 nM | 1270 nM | Cc1ccncc1C(=O)NCc1cncc(N2C(=O)c3ccc(Cl)cc3C2(C)C)c1 [Example 440, N-[5-(6-Chloro-1,1-dimethyl-3-oxo-1,3-dihydro-isoindol-2-yl)-pyridin-3-ylmethyl]-4-methyl-nicotinamide] |
| 16.6 nM | 988 nM | CC(=O)N1CCC(Oc2cncc(N3C(=O)c4ccc(Cl)cc4C3(C)C)c2)C1 (stereo not drawn) [Example 441, 2-[5-(1-Acetyl-pyrrolidin-3-yloxy)-pyridin-3-yl]-5-chloro-3,3-dimethyl-2,3-dihydro-isoindol-1-one] |
| 5.6 nM | 427 nM | CC(=O)N1CC[C@@H](Oc2cncc(N3C(=O)c4ccc(Cl)cc4C3(C)C)c2)C1 [Example 442, 2-[5-((R)-1-Acetyl-pyrrolidin-3-yloxy)-pyridin-3-yl]-5-chloro-3,3-dimethyl-2,3-dihydro-isoindol-1-one] |
| 9 nM | 1170 nM | CC(=O)N1CC[C@H](Oc2cncc(N3C(=O)c4ccc(Cl)cc4C3(C)C)c2)C1 [Example 443, 2-[5-((S)-1-Acetyl-pyrrolidin-3-yloxy)-pyridin-3-yl]-5-chloro-3,3-dimethyl-2,3-dihydro-isoindol-1-one] |
| 8.4 nM | 514 nM | CCC(=O)N1CCC(Oc2cncc(N3C(=O)c4ccc(Cl)cc4C3(C)C)c2)C1 (stereo not drawn) [Example 444, 5-Chloro-3,3-dimethyl-2-[5-(1-propionyl-pyrrolidin-3-yloxy)-pyridin-3-yl]-2,3-dihydro-isoindol-1-one] |
| 7.4 nM | 914 nM | CC1(C)c2cc(Cl)ccc2C(=O)N1c1cncc(OC2CCN(S(C)(=O)=O)C2)c1 (stereo not drawn) [Example 445, 5-Chloro-2-[5-(1-methanesulfonyl-pyrrolidin-3-yloxy) -pyridin-3-yl]-3,3-dimethyl-2,3-dihydro-isoindol-1-one] |
| 185 nM | 263 nM | CCS(=O)(=O)N1CCC(Oc2cncc(N3C(=O)c4ccc(Cl)cc4C3(C)C)c2)C1 (stereo not drawn) [Example 446, 5-Chloro-2-[5-(1-ethanesulfonyl-pyrrolidin-3-yloxy) -pyridin-3-yl]-3,3-dimethyl-2,3-dihydro-isoindol-1-one] |
| 1.9 nM | 233 nM | CCS(=O)(=O)N1CC[C@@H](Oc2cncc(N3C(=O)c4ccc(Cl)cc4C3(C)C)c2)C1 [Example 447, 5-Chloro-2-[5-((R)-1-ethanesulfonyl-pyrrolidin-3-yloxy)-pyridin-3-yl]-3,3-dimethyl-2,3-dihydro-isoindol-1-one] |
| 21.2 nM | 1980 nM | CCS(=O)(=O)N1CC[C@H](Oc2cncc(N3C(=O)c4ccc(Cl)cc4C3(C)C)c2)C1 [Example 448, 5-Chloro-2-[5-((S)-1-ethanesulfonyl-pyrrolidin-3-yloxy)-pyridin-3-yl]-3,3-dimethyl-2,3-dihydro-isoindol-1-one] |
| 2.8 nM | 235 nM | CC(=O)N1CCC(Oc2cncc(N3C(=O)c4ccc(Cl)cc4C3(C)C)c2)CC1 [Example 449, 2-[5-(1-Acetyl-piperidin-4-yloxy)-pyridin-3-yl]-5-chloro-3,3-dimethyl-2,3-dihydro-isoindol-1-one] |
| 122 nM | 20100 nM | CC(=O)N1CC(Oc2cncc(N3C(=O)c4ccc(Cl)cc4C3(C)C)c2)C1 [Example 450, 2-[5-(1-Acetyl-azetidin-3-yloxy)-pyridin-3-yl]-5-chloro-3,3-dimethyl-2,3-dihydro-isoindol-1-one] |
| 38.9 nM | 5330 nM | CCC(=O)N1CC(Oc2cncc(N3C(=O)c4ccc(Cl)cc4C3(C)C)c2)C1 [Example 451, 5-Chloro-3,3-dimethyl-2-[5-(1-propionyl-azetidin-3-yloxy)-pyridin-3-yl]-2,3-dihydro-isoindol-1-one] |
| 26.8 nM | 1740 nM | CC1(C)c2cc(Cl)ccc2C(=O)N1c1cncc(OC2CN(S(C)(=O)=O)C2)c1 [Example 452, 5-Chloro-2-[5-(1-methanesulfonyl-azetidin-3-yloxy)-pyridin-3-yl]-3,3-dimethyl-2,3-dihydro-isoindol-1-one] |
| 5.1 nM | 876 nM | CCS(=O)(=O)N1CC(Oc2cncc(N3C(=O)c4ccc(Cl)cc4C3(C)C)c2)C1 [Example 453, 5-Chloro-2-[5-(1-ethanesulfonyl-azetidin-3-yloxy)-pyridin-3-yl]-3,3-dimethyl-2,3-dihydro-isoindol-1-one] |
| 6.6 nM | 62 nM | CC1(C)c2cc(Cl)ccc2C(=O)N1c1cncc(N2CC[C@H](O)C2)c1 [Example 454, 5-Chloro-2-[5-((S)-3-hydroxy-pyrrolidin-1-yl)-pyridin-3-yl]-3,3-dimethyl-2,3-dihydro-isoindol-1-one] |
| 8.6 nM | 717 nM | CC(=O)N1CCN(c2cncc(N3C(=O)c4ccc(Cl)cc4C3(C)C)c2)CC1 [Example 455, 2-[5-(4-Acetyl-piperazin-1-yl)-pyridin-3-yl]-5-chloro-3,3-dimethyl-2,3-dihydro-isoindol-1-one] |
| 1.2 nM | 106 nM | CCC(=O)N1CCN(c2cncc(N3C(=O)c4ccc(Cl)cc4C3(C)C)c2)CC1 [Example 456, 5-Chloro-3,3-dimethyl-2-[5-(4-propionyl-piperazin-1-yl)-pyridin-3-yl]-2,3-dihydro-isoindol-1-one] |
| 1.8 nM | 298 nM | CC1(C)c2cc(Cl)ccc2C(=O)N1c1cncc(N2CCN(S(C)(=O)=O)CC2)c1 [Example 457, 5-Chloro-2-[5-(4-methanesulfonyl-piperazin-1-yl)-pyridin-3-yl]-3,3-dimethyl-2,3-dihydroisoindol-1-one] |
| 1.7 nM | 351 nM | CCS(=O)(=O)N1CCN(c2cncc(N3C(=O)c4ccc(Cl)cc4C3(C)C)c2)CC1 [Example 458, 5-Chloro-2-[5-(4-ethanesulfonyl-piperazin-1-yl)-pyridin-3-yl]-3,3-dimethyl-2,3-dihydroisoindol-1-one] |
